Assay results published in US20220388990A1, “INHIBITORS OF CYCLIN-DEPENDENT KINASES” (Kinnate Biopharma Inc., priority 2019, published 2022).

Target: T1, CDK12 (Homo sapiens, UniProt Q9NYV4)
T1 construct: ProQinase (named as the party running the assay)
Assay: Radiometric protein kinase assay (33PanQinase), assay condition 1, thiol-free conditions
Format: biochemical
Details: thiol-free conditions (1 mM TCEP), ATP at apparent Km
Method: Example 2 —Assay condition 1 (thiol-free conditions)
The IC50 profile of compounds was determined using protein kinase in a customized, thiol free assay. IC50 values were measured by testing 10 concentrations (1×10^−05 M to 3×10^−10 M) of each test compound in singlicate against each kinase of interest. Prior to testing, the 1×10^−03M stock solutions in column 2 of the master plates were subjected to a serial, semi-logarithmic dilution using 100% DMSO as a solvent. […] Column 1 and 7 were filled with 100% DMSO as controls. Subsequently, 2×10 microliter from each well of the serial diluted copy plates were aliquoted with a 96 channel pipettor into two identical sets of “compound dilution plates”. All plates were barcoded for automated identification and tracking purposes. IC50 values were measured by testing 10 concentrations (1×10^−05 M to 3×10^−10 M) of each compound in singlicate. All compounds were stored as powder until being solubilized in DMSO. Solubilized compounds were stored as 1×10^−02 M/100% DMSO stock solutions. Prior to the assay process, 90 microliters of H2O were added to each well of a set of compound dilution plates. To minimize potential precipitation, the H2O was added to each plate only a few minutes before the transfer of the compound solutions into the assay plates. Each plate was shaken thoroughly, resulting in compound dilution plates with a final of 10% DMSO. For each assay, 5 microliters of solution from each well of the compound dilution plates/10% DMSO were transferred into the assay plate. The final volume of the assay was 50 μl. All compounds were tested at 10 final assay concentrations in the range from 1×10^−05 M to 3×10^−10 M, in singlicate. The final DMSO concentration in the reaction cocktails was 1% in all cases. A radiometric protein kinase assay (33PanQinase® Activity Assay) was used for measuring the kinase activity of the protein kinase. All kinase assays were performed in 96-well FlashPlates™ from PerkinElmer (Boston, Mass., USA) in a 50 microliter reaction volume. The reaction cocktail was pipetted in four steps in the following order: 20 microliter of assay buffer (standard buffer) 5 microliter of ATP solution (in H2O) 5 microliter of test compound (in 10% DMSO) 20 microliter enzyme/subtrate mix. Each assay for the protein kinase contained 70 mM HEPES-NaOH pH 7.5, 3 mM MgCl2, 3 mM MnCl2, 3 microM Na-orthovanadate, 1 mM TCEP, 50 μg/ml PEG20000, ATP (corresponding to the apparent ATP-Km of the kinase, see Table A), [gamma-33P]-ATP (approx. 6×10×E5 cpm per well), with the protein kinase and relevant substrate being used in pre-determined amounts, depending on the kinase in question. For all experiments labeled as “Thiol-free”, all glutathione was exchanged from protein preparations so as to be removed from the assay and final buffer conditions contained no thiol- containing reagents. This was done so there would be no interference with the key cysteines in the proteins of interest.
For data analysis, the median value of the counts in column 1 (n=8) of each assay plate was defined as “low control”. This value reflects unspecific binding of radioactivity to the plate in the absence of a protein kinase but in the presence of the substrate. The median value of the counts in column 7 of each assay plate (n=8) was taken as the “high control”, i.e. full activity in the absence of any inhibitor. The difference between high and low control was taken as 100% activity. As part of the data evaluation the low control value from a particular plate was subtracted from the high control value as well as from all 80 “compound values” of the corresponding plate. The residual activity (in %) for each well of a particular plate was calculated by using the following formula:
Res. Activity (%)=100×[(cpm of compound−low control)/(high control−low control)] […]

T1 sequence (Q9NYV4 whole entry): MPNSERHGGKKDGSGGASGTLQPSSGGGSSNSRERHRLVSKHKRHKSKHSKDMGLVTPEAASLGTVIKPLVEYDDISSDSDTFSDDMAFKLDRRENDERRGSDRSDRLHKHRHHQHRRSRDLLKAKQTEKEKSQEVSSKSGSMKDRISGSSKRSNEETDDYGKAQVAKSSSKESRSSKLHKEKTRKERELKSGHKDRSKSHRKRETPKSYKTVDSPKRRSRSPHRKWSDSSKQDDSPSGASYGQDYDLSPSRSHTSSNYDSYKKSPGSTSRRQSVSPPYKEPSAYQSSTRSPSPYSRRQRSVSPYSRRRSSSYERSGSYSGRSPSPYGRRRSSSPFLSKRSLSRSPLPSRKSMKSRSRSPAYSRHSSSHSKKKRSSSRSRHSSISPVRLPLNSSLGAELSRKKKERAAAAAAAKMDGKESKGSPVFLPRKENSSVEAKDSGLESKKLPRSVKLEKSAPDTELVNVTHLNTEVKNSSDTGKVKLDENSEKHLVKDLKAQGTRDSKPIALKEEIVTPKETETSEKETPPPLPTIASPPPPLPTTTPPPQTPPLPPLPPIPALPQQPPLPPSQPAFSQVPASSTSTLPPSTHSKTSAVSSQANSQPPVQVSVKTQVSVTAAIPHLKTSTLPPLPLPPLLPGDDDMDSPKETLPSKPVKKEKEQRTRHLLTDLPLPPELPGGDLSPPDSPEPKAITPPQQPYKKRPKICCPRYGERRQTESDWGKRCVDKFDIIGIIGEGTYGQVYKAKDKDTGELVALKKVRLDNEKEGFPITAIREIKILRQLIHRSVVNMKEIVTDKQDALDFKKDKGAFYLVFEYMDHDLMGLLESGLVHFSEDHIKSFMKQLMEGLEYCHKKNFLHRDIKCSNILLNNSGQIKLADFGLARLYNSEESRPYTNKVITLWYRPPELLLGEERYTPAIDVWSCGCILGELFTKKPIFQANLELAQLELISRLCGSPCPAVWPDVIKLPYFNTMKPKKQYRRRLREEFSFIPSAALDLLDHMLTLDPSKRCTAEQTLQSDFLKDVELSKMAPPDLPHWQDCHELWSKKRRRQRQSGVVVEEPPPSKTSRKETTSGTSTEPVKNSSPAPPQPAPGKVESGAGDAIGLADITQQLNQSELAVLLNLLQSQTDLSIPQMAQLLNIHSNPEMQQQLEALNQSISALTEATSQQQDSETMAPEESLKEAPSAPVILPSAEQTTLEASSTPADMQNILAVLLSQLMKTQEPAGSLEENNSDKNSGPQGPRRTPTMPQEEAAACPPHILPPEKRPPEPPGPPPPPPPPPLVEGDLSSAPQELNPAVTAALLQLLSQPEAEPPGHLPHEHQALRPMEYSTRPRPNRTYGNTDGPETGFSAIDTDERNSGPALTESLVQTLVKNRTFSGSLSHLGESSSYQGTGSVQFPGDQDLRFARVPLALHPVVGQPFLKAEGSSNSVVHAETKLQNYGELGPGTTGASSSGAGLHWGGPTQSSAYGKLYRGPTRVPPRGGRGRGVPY
T1 sequence (O75909 whole entry partner): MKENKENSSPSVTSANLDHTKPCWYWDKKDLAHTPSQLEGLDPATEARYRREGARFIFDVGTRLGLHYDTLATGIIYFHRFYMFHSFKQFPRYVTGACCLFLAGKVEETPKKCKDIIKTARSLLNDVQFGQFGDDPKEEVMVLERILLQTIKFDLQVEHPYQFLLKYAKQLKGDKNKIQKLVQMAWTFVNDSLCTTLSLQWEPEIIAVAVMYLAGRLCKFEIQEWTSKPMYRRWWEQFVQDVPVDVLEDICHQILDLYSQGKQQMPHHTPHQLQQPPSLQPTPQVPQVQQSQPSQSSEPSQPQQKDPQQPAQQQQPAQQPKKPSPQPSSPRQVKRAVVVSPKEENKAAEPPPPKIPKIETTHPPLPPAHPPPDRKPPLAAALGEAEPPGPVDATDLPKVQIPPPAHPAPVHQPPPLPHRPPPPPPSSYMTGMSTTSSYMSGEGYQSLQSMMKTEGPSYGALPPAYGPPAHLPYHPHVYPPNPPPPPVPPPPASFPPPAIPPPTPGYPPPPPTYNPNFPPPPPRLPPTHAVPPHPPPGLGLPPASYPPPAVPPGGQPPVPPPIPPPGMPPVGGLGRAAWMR

Row | IC50 [nM] | Compound
1 | 100 to 1000 | C=CC(=O)Nc1ccc2c(N3CC[C@@H](Nc4ncc(Cl)cn4)C3)ncnc2c1 [Example 1, (R)-N-(4-(3-((5-chloropyrimidin-2-yl)amino)pyrrolidin-1-yl)quinazolin-7-yl)acrylamide]
2 | ≤ 100 | C=CC(=O)Nc1ccc2c(N3CC[C@@H](Nc4ncc(C(F)(F)F)cn4)C3)ncnc2c1 [Example 2, (R)-N-(4-(3-((5-(trifluoromethyl)pyrimidin-2-yl)amino)pyrrolidin-1-yl)quinazolin-7-yl)acrylamide]
3 | ≤ 100 | C=CC(=O)Nc1ccc2c(N3CC[C@@H](Nc4ncc(Cl)c(OCC)n4)C3)ncnc2c1 [Example 3, (R)-N-(4-(3-((5-chloro-4-ethoxypyrimidin-2-yl)amino)pyrrolidin-1-yl)quinazolin-7-yl)acrylamide]
4 | ≤ 100 | C=CC(=O)Nc1ccc2c(N3CC[C@@H](Nc4ncc(Cl)c(OC)n4)C3)ncnc2c1 [Example 4, (R)-N-(4-(3-((5-chloro-4-methoxypyrimidin-2-yl)amino)pyrrolidin-1-yl)quinazolin-7-yl)acrylamide]
5 | ≤ 100 | C=CC(=O)Nc1ccc2c(N3CC[C@@H](Nc4ncc(Br)c(OC)n4)C3)ncnc2c1 [Example 5, (R)-N-(4-(3-((5-bromo-4-methoxypyrimidin-2-yl)amino)pyrrolidin-1-yl)quinazolin-7-yl)acrylamide]
6 | ≤ 100 | C=CC(=O)Nc1ccc2c(N3CC[C@@H](Nc4ncc(C(F)(F)F)c(N)n4)C3)ncnc2c1 [Example 6, (R)-N-(4-(3-((4-amino-5-(trifluoromethyl)pyrimidin-2-yl)amino)pyrrolidin-1-yl)quinazolin-7-yl)acrylamide]
7 | 100 to 1000 | C=CC(=O)Nc1ccc2c(N3CC[C@@H](Nc4ncc(Cl)c(Oc5ccccc5)n4)C3)ncnc2c1 [Example 7, (R)-N-(4-(3-((5-chloro-4-phenoxypyrimidin-2-yl)amino)pyrrolidin-1-yl)quinazolin-7-yl)acrylamide]
8 | ≤ 100 | C=CC(=O)Nc1ccc2c(N3CC[C@@H](Nc4ncc5cc(F)ccc5n4)C3)ncnc2c1 [Example 8, (R)-N-(4-(3-((6-fluoroquinazolin-2-yl)amino)pyrrolidin-1-yl)quinazolin-7-yl)acrylamide]
9 | ≤ 100 | C=CC(=O)Nc1ccc2c(N3CC[C@@H](Nc4ncc(Cl)c(C(F)(F)F)n4)C3)ncnc2c1 [Example 9, (R)-N-(4-(3-((5-chloro-4-(trifluoromethyl)pyrimidin-2-yl)amino)pyrrolidin-1-yl)quinazolin-7-yl)acrylamide]
10 | ≤ 100 | C=CC(=O)Nc1ccc2c(N3CC[C@@H](Nc4ncc(C5CC5)cn4)C3)ncnc2c1 [Example 10, (R)-N-(4-(3-((5-cyclopropylpyrimidin-2-yl)amino)pyrrolidin-1-yl)quinazolin-7-yl)acrylamide]
11 | ≤ 100 | C=CC(=O)Nc1ccc2c(N3CC[C@@H](Nc4ncc5sccc5n4)C3)ncnc2c1 [Example 11, (R)-N-(4-(3-(thieno [3,2-d]pyrimidin-2-ylamino)pyrrolidin-1-yl)quinazolin-7-yl)acrylamide]
12 | ≤ 100 | C=CC(=O)Nc1ccc2c(N3CC[C@@H](Nc4ncc(C#N)cn4)C3)ncnc2c1 [Example 12, (R)-N-(4-(3-((5-cyanopyrimidin-2-yl)amino)pyrrolidin-1-yl)quinazolin-7-yl)acrylamide]
13 | ≤ 100 | C=CC(=O)Nc1ccc2c(N3CC[C@@H](Nc4ncc5ccccc5n4)C3)ncnc2c1 [Example 13, (R)-N-(4-(3-(quinazolin-2-ylamino)pyrrolidin-1-yl)quinazolin-7-yl)acrylamide]
14 | ≤ 100 | C=CC(=O)Nc1ccc2c(N3CC[C@@H](Nc4ncc(Cl)c(NC)n4)C3)ncnc2c1 [Example 14, (R)-N-(4-(3-((5-chloro-4-(methylamino)pyrimidin-2-yl)amino)pyrrolidin-1-yl)quinazolin-7-yl)acrylamide]
15 | ≤ 100 | C=CC(=O)Nc1ccc2c(N3CC[C@@H](Nc4ncc(C(F)(F)F)c(NC)n4)C3)ncnc2c1 [Example 15, (R)-N-(4-(3-((4-(methylamino)-5-(trifluoromethyl)pyrimidin-2-yl)amino)pyrrolidin-1-yl)quinazolin-7-yl)acrylamide]
